These results are taken from US12540197B2, “Anti-tissue factor antibodies and antibody conjugates, compositions comprising anti-tissue factor antibodies or antibody conjugates, and methods of making and using anti-tissue factor antibodies and antibody conjugates” (SUTRO BIOPHARMA, INC., priority 2023, dated 2026).

The subject of the assay is BxPC3 cells. Kind of assay: Secondary ADC cell killing assay (antibody + anti-human Fc nanobody conjugated to SC236) on BxPC3. The class given is cell-based. As to conditions: Table 15, scFv-Fc from SRP2842; nanobody-SC236 20 nM, 120 hrs. As to the method: The internalization ability of the lead antibodies was evaluated by an ADC cell killing assay on Tissue Factor positive BxPC3 cells. A total of 625 cells in a volume of 25 μL were seeded in each well of a 384-well flat bottom white polystyrene plate. Lead antibodies were formulated at 4-fold starting concentration in the cell culture medium and filtered through MultiScreenHTS 96-Well Filter Plates (Millipore; Billerica, Massachusetts). 12.5 μL of antibody was added into each treatment well, and 12.5 μL of anti-human Fc nanobody conjugated to SC236 was then added into each well at a fixed final concentration of 20 nM. Assay plates were cultured at 37° C. in a CO2 incubator for 120 hrs before assay. For cell viability measurement, 30 μL of Cell Titer-Glo® reagent (Promega Corp. Madison, WI) was added into each well, and plates were processed as per product instructions. Relative luminescence was measured on an ENVISION® plate reader (Perkin-Elmer; Waltham, MA). Relative luminescence readings were converted to percent viability using untreated cells as controls. Data was fitted with non-linear regression analysis, using a log (inhibitor) vs. response-variable slope, 4 parameter fit with GraphPad Prism (GraphPad v 5.0, Software; San Diego, California).

As a reminder, the EC50 is the concentration giving half of the maximal effect. For the substance Tisotumab, the “BxPC3 Cell Killing Span (%)” value is recorded as 94.7% and the EC50 worked out at 0.023 nM.
